This is an account of results in the supplement of paper PMC10307832.

What all share (assay): relative viability (nuclei count vs DMSO), 5 days (fraction); higher = more cells survive
Compound in the experiment “SGI-1776 + Crizotinib”: CN1CCC(CNc2ccc3ncc(-c4cccc(OC(F)(F)F)c4)n3n2)CC1 [SGI-1776] + C[C@@H](Oc1cc(-c2cnn(C3CCNCC3)c2)cnc1N)c1c(Cl)ccc(F)c1Cl [Crizotinib] (partner 1 µM)
The essentials: (§1)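 Each reported value is a median over duplicate plates. It expresses relative viability: treated-well nuclei count divided by vehicle-well nuclei count. Lung cancer cell lines in 1536-well plates were dosed by pin tool a day after seeding, alone with one drug or with a fixed anchor-drug dose plus five library-drug doses (not always all listed) in √10 steps, and nuclei were counted after 5 days.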

Compound in the experiment “Entinostat + Lapatinib”: Nc1ccccc1NC(=O)c1ccc(CNC(=O)OCc2cccnc2)cc1 [Entinostat] + CS(=O)(=O)CCNCc1ccc(-c2ccc3ncnc(Nc4ccc(OCc5cccc(F)c5)c(Cl)c4)c3c2)o1 [Lapatinib] (partner 2 µM)
The essentials: as §1

Compound in experiment [1]: C1COCCN1C2=NC(=NC3=C2OC4=C3C=CC=N4)C5=CC(=CC=C5)NC(=O)C6=CN=C(C=C6)N + CS(=O)(=O)CCNCc1ccc(-c2ccc3ncnc(Nc4ccc(OCc5cccc(F)c5)c(Cl)c4)c3c2)o1 [Lapatinib] (partner 2 µM)
The method in brief:
as §1

Compound in the experiment “SGI-1776 + Vorinostat”: CN1CCC(CNc2ccc3ncc(-c4cccc(OC(F)(F)F)c4)n3n2)CC1 [SGI-1776] + O=C(CCCCCCC(=O)Nc1ccccc1)NO [Vorinostat] (partner 1 µM)
The essentials:
as §1

UMC-11: the relative viability with SGI-1776 + Crizotinib (first compound 0.08 µM) came out at 0.614; in the experiment with SGI-1776 + Crizotinib (first compound 0.8 µM) it was 0.498; with SGI-1776 + Crizotinib (first compound 2.53 µM), 0.665; with SGI-1776 + Crizotinib (first compound 8 µM), 0.169; in the experiment with Entinostat + Lapatinib (first compound 0.02 µM), 1.17; with Entinostat + Lapatinib (first compound 0.06325 µM) it was 1.21. Moreover, the relative viability amounted to 1.28 with Entinostat + Lapatinib (first compound 0.2 µM); 0.222 with Entinostat + Lapatinib (first compound 0.6325 µM); 0.173 with Entinostat + Lapatinib (first compound 2 µM); 0.927 in experiment [1] (first compound 0.02 µM); 1.09 in experiment [1] (first compound 0.06325 µM); 0.918 in experiment [1] (first compound 0.2 µM). Besides, the relative viability was 1.06 in experiment [1] (first compound 0.6325 µM); 0.822 in experiment [1] (first compound 2 µM); 0.404 in the experiment with SGI-1776 + Vorinostat (first compound 0.08 µM); 0.378 with SGI-1776 + Vorinostat (first compound 0.8 µM); 0.357 with SGI-1776 + Vorinostat (first compound 2.53 µM); 0.228 with SGI-1776 + Vorinostat (first compound 8 µM).
